Results from PubChem BioAssay AID651650 (Sanford-Burnham Center for Chemical Genomics, 2012).

Each compound was assayed against Neuropilin-1 (Homo sapiens) (UniProt O14786) (assay: blockers of CendR peptide binding to NRP-1 – biochemical, FP and AlphaScreen panel, dose response (AID 651650)). Settings: NRP-1 b1b2 / RPARPAR peptide binding, FP or AlphaScreen; FP, run 1; individual panel run IC50.
Chain of Neuropilin-1 (Homo sapiens) (O14786 whole entry, looked up): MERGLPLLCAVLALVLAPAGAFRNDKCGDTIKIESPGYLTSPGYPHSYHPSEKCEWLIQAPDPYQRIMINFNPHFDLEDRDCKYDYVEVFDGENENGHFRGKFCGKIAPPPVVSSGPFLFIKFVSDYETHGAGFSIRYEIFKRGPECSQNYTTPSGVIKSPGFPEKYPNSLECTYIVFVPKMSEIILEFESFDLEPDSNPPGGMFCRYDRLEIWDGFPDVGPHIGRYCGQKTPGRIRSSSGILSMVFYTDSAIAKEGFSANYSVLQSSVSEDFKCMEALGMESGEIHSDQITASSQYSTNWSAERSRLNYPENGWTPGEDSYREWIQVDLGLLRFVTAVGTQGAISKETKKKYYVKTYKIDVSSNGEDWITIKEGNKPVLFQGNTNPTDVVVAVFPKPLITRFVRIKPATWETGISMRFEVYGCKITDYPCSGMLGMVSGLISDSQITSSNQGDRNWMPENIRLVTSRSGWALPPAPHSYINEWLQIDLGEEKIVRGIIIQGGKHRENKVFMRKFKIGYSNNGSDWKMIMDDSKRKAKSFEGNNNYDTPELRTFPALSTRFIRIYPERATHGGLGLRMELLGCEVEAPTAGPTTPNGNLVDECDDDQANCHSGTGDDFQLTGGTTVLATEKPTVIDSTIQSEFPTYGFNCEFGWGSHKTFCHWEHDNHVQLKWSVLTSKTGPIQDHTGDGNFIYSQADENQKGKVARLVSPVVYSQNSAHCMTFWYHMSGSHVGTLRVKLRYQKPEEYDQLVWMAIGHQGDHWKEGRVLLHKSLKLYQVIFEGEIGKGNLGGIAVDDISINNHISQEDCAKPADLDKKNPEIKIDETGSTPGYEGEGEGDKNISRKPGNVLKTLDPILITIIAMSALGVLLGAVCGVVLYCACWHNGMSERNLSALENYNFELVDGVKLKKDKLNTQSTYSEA

| Structure (SMILES) | IC50 [µM] |
| --- | --- |
| CCCS(=O)(=O)N1CCC(C(=O)NC2CCCC(C)C2C)CC1 (stereo not given) | > 95 |
| Cc1nnc(SC(C)C(=O)Nc2ccc(S(=O)(=O)NC3CCCCC3)cc2)s1 (stereo not given) | > 95 |
| CC(=O)c1cccc(S(=O)(=O)N2CCC(C(=O)O)(c3ccccc3)CC2)c1 | > 95 |
| CC(=O)Oc1cc2c(c3ccccc13)CCC2=O | > 95 |
| COC(=O)n1c(=O)oc2ccccc21 | > 95 |
| O=C1c2cc([N+](=O)[O-])cc3cc([N+](=O)[O-])cc(c23)C(=O)N1c1ccccn1 | > 95 |
| CCn1c(=O)c(C(=O)NCCNCCO)c(O)c2ccccc21 | > 95 |
| CCN(Cc1ccncc1)C(=O)c1cc(COc2ccc(F)cc2F)on1 | > 95 |
| CCC(=O)Nc1nc2nc(-c3ccccc3)cc(-c3ccccc3)n2n1 | > 95 |
| CC(C)COC(=O)C1C2C=CC3(CN(C(C)c4ccc(Br)cc4)C(=O)C13)O2 (stereo not given) | > 95 |
| Cc1cc2cc(CNC(=O)c3ccco3)ccc2n1C | > 95 |

Same assay, conditions: NRP-1 b1b2 / RPARPAR peptide binding, FP or AlphaScreen; FP, run 2; individual panel run IC50

| Structure (SMILES) | IC50 [µM] |
| --- | --- |
| O=C(c1cccc(F)c1)N1CCN(c2ccc([N+](=O)[O-])c(N3CCCCC3)c2)CC1 | > 95 |
| N#CC(C#N)=Cc1cc2ccccc2nc1N1CCCCC1 | > 95 |
| COc1cc(C(=O)Nc2cc3c(cc2N2CCCCC2)n(C)c(=O)n3C)cc(OC)c1OC | > 95 |
| Cc1ccc(C)c(-n2c(SCC(=O)NC(C(=O)O)C(C)C)nnc2-c2cccc(Cl)c2)c1 (stereo not given) | > 95 |
| Cc1ccc(Cl)c(NC(=O)CSc2cccc[n+]2[O-])c1Cl | > 95 |
| Cc1ccc2cc(CN(c3ccccc3C)S(=O)(=O)c3ccccc3)c(=O)[nH]c2c1 | > 95 |
| CCOc1ccc(S(=O)(=O)NNC(=O)c2cc3ccccc3o2)cc1 | > 95 |
| Oc1ccc(-c2nc3ncccn3c2Nc2ccc3c(c2)OCO3)cc1 | > 95 |
| CCCc1c(C)nc(N2CCN(c3ccccc3OC)CC2)[nH]c1=O | > 95 |
| CN(C)/C=C/c1c([N+](=O)[O-])c2ccc(O)cc2n1-c1ccccc1 | > 95 |
| N=C1C(=O)OCC1c1cc(Cl)ccc1NC(=O)Nc1ccccc1 (stereo not given) | > 95 |
| CCCn1c(C)cc(C(=O)CSc2nc3nc(C)cc(C)n3n2)c1C | > 95 |
| C/C(=N\NC(=O)c1cc(O)ccc1O)c1cccc(NC(=O)c2cccc(Cl)c2)c1 | > 95 |
| CCOC(=O)N1CCN(C(=O)Nc2ccc3nc(C)c(C)nc3c2)CC1 | > 95 |
| O=C(NCCN1CCN(C(=O)c2cccc(OC(F)F)c2)CC1)c1cccc(OC(F)F)c1 | > 95 |
| O=C1CCC[C@@H]2Cc3nc4cc5c(cc4cc3[C@@H]3CCN1[C@H]23)OCO5 | > 95 |
| Cc1ccc(N(C(=O)c2ccc(CN3CCOCC3)o2)C(C(=O)NCCC(C)C)c2cccs2)c(C)c1 (stereo not given) | > 95 |
| Cc1ccc(NC(=O)c2ccc3c(c2)S(=O)(=O)c2ccccc2C3=O)cc1S(=O)(=O)N1CCOCC1 | > 95 |
| CCc1ccccc1NC(=O)c1ccccc1N1C(=O)C2C3C=CC(C3)C2C1=O (stereo not given) | > 95 |
| Cc1ccc(S(=O)(=O)NCC(=O)N(c2ccccc2)C(C(=O)NCc2ccccc2)c2ccco2)cc1 (stereo not given) | > 95 |
| CCOC(=O)Cc1ccc(NS(=O)(=O)c2ccc(SC)cc2)cc1 | > 95 |
| CC1(c2ccccc2)CC(C)(C)n2c(O)c(C3=NC(=S)NC3=O)c3cccc1c32 (stereo not given) | > 95 |

| Structure (SMILES) | IC50 [µM] |
| --- | --- |
| O=C(c1ncn(Cc2ccccc2)c1C(=O)N1CCc2ccccc2C1)N1CCc2ccccc2C1 | > 95 |
| COC(=O)C1=C(c2ccc(F)cc2OCc2ccccc2)C[C@@H]2CC[C@H]1N2C(=O)NCCNC(C)=O | > 95 |
| COC(=O)C1=C(C)NC(C)=C(C(=O)OC)C1C(=O)OC(C)C(=O)c1ccccc1 (stereo not given) | > 95 |
| CCC1=C(OC(=O)N(CC)CC)N2C(=O)OC(=NCCOC)[C@]2(Cc2ccccc2)[C@H]2C1=CC[C@H]1C(=O)N(CC(=O)OC)C(=O)[C@H]12 | > 95 |
| CC(C)C1=C2CCCCC2NC(=O)N1 (stereo not given) | > 95 |
| CC1(C)CN=C(Nc2ccc(F)c(Cl)c2)S1 | > 95 |
| Cc1ccccc1OCC1Cc2c(nc(N)c(C#N)c2N)O1 (stereo not given) | > 95 |
| Cc1cc(N/C(=N/S(=O)(=O)c2cc(F)ccc2F)c2ccccc2)n(-c2ccccc2)n1 | > 95 |
| COc1cccc(C(=O)N2N=C(c3ccccc3)CC2(O)C(F)(F)F)c1 (stereo not given) | > 95 |
| CCCCc1ccc(S(=O)(=O)N2CCC3(CC2)OCCO3)cc1 | > 95 |
| COC(=O)c1ccccc1NC(=O)CSc1nc(C)cc(C)n1 | > 95 |
| CCCS(=O)(=O)N1CCC(C(=O)NC2CCCC(C)C2C)CC1 (stereo not given) | > 95 |
| Cc1nnc(SC(C)C(=O)Nc2ccc(S(=O)(=O)NC3CCCCC3)cc2)s1 (stereo not given) | > 95 |
| CC(=O)c1cccc(S(=O)(=O)N2CCC(C(=O)O)(c3ccccc3)CC2)c1 | > 95 |
| CC(=O)Oc1cc2c(c3ccccc13)CCC2=O | > 95 |
| COC(=O)n1c(=O)oc2ccccc21 | > 95 |
| O=C1c2cc([N+](=O)[O-])cc3cc([N+](=O)[O-])cc(c23)C(=O)N1c1ccccn1 | > 95 |
| CCn1c(=O)c(C(=O)NCCNCCO)c(O)c2ccccc21 | > 95 |
| CCN(Cc1ccncc1)C(=O)c1cc(COc2ccc(F)cc2F)on1 | > 95 |
| CCC(=O)Nc1nc2nc(-c3ccccc3)cc(-c3ccccc3)n2n1 | > 95 |
| CC(C)COC(=O)C1C2C=CC3(CN(C(C)c4ccc(Br)cc4)C(=O)C13)O2 (stereo not given) | > 95 |
| Cc1cc2cc(CNC(=O)c3ccco3)ccc2n1C | > 95 |
